Article PMC13119441, “Linking Chemical Profile to Enzyme Inhibition: A Comprehensive Bio-Guided Study of Lippia origanoides Kunth Essential Oil” (Plants, 2026)
Where a name gives a salt, the structure may show the parent alone.

Molecular target: T1, butyrylcholinesterase (BChE) (Equus caballus, UniProt P81908)
T1 construct: purchased Merck Life Science S.r.l; (Milan, Italy); host or cells: equine serum
Experiment: In vitro BChE inhibition test (spectrophotometric, Ellman)
Format: biochemical, equine
Conditions: 1.0 µg/mL in reaction mixture, read-out: % Enzyme Inhibition (n = 3)
Procedure: The assays were optimized for essential oil matrices, particularly by adjusting solvent conditions (DMSO content), substrate/enzyme ratios, and assay timing to ensure measurements within the linear kinetic range. The percentage inhibition of AChE, BChE, α-glucosidase, lipase and tyrosinase was measured according to the equation below: % Inhibition=∆AControl−∆A(Sample)/∆AControl×100 where: ∆A (Control) = A Control − A Control Blank∆A(Sample) = A Sample − A Sample Blank
The buffers used in the experiment were: buffer A (50 mM Tris-HCl, pH 8), buffer B (50 mM Tris-HCl, pH 8, supplemented with 0.1% bovine albumin and 0.1% TWEEN20) and buffer C (50 mM Tris-HCl, pH 8, containing 0.1 M NaCl and 0.02 M MgCl2•6H2O). The solutions for both enzymes (0.22 U/mL) were prepared using buffer B. Acetylthiocholine iodide (ATCI) at 1.5 mM was dissolved in Millipore water, while butyrylthiocholine iodide (BTCI) was dissolved in buffer A. Ellman’s reagent solution (3 mM) was prepared in buffer C.
The final concentration of DMSO in the reaction mixture was 0.3%. The mixture was incubated at 30 °C for 6 min, after which absorbance was measured at 405 nm.

T1 sequence (P81908 whole entry): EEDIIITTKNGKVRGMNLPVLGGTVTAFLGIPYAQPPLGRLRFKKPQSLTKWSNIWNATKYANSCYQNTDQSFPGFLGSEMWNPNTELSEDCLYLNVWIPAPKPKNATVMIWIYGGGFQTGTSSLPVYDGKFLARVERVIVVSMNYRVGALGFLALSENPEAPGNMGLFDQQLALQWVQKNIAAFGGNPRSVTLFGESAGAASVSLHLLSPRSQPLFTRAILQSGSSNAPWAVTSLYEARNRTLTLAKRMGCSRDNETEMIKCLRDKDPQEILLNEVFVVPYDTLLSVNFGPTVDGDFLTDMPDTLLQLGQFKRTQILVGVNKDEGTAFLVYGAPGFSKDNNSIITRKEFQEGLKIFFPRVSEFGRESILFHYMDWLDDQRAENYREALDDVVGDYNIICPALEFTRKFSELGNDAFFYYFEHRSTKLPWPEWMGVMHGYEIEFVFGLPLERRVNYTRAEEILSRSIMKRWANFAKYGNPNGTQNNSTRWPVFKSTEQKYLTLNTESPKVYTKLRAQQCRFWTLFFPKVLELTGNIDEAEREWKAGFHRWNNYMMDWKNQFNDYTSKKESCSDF

## COc1ccc2c3c1O[C@H]1C[C@@H](O)C=C[C@@]31CCN(C)C2 [Galanthamine, galanthamine hydrobromide]
  inhibition at 1 µg/mL: 24.7%
